One assay deals with T1, CRF-1 (UniProt P34998).
T1 sequence (P34998 1-415): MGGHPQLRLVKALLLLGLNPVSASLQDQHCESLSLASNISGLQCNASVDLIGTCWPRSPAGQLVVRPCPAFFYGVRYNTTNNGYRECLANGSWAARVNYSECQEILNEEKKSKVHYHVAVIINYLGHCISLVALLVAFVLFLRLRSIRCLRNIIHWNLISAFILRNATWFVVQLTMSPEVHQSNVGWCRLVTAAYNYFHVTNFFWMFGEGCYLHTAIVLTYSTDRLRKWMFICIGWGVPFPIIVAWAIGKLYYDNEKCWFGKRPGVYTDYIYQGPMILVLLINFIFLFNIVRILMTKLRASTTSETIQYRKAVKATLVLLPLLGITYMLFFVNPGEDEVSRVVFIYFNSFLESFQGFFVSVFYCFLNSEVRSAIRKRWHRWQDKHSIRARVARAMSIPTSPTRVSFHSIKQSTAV
Nature of the assay: CRF-1 receptor antagonism, HTRF cAMP assay in CHO cells. It is filed as cell-based, human. The conditions noted are these: Biological data Table 2; inhibition of CRF induced cAMP response in CHO cells, EC50 concentration of CRF. How it is done:
(§1) The CRF-1 and CRF-2 receptor antagonistic activity of the agents of the invention has been determined in vitro in the following assay:
(§2) Chinese hamster ovary (CHO) cells expressing either the human or rat recombinant CRF-1 or human CRF-2α (Chen et al, Proc Natl Acad Sci USA 90, 8967-8971, 1993; Liaw et al, Endocrinology 137, 72-77, 1996) are propagated in Dulbecco's modified Eagle medium supplemented with 10% foetal calf serum, non-essential amino acids, 100 U/ml penicillin, 100 mg/l streptomycin and 1 g/l geneticin. CHO cells expressing the rat CRF-2β receptor (Wu et al, Endocrinology 148, 1675-1687, 2007) are propagated in HAM's-F12 Glutamax supplemented with 10% foetal calf serum, 100 IU/ml penicillin, 100 mg/l streptomycin, 600 μg/ml hygromycin, 10 μg/ml blasticidin and induced with 1 μg/ml of tetracyclin for 24 hours prior to experimentation. For cyclic AMP determinations the Homogeneous Time-Resolved Fluoresce (HTRF) cAMP dynamic 2 kit (Cisbio International, France) was used as per manufacturers' instructions. CHO cells, previously cryopreserved at 3×10^6 viable cells per ml of cell recovery media (Cat no. 12648-010, Invitrogen), were thawed, centrifuged for 7 mins at 1200 rpm and resuspended in serum free media to give a concentration of 0.5×10^6 cells per/ml. Compounds of the invention, prepared in DMSO, and subsequently diluted 50 fold in assay buffer (1× Hanks balanced salt solution, 0.2% (w/v) bovine serum albumin, 1.7 mM isobutylmethylxanthine and 10 mM Hepes, pH7.4) were then added onto the 384 well low volume black assay plate (Corning Inc, US, Cat. 3676). 2000 cells/well were then added to the assay plate further diluting the compound 2 fold and then the plate was incubated for 15 mins at room temperature. Following incubation, buffer containing a 5 times final concentration of agonist, typically r/h CRF is added to the plate and incubated for 30 min at room temperature. Finally, d2 dye labeled cAMP and cryptate labeled anti-cAMP antibody, both made in lysis buffer, are added to the plate followed by a settling period of 1 hour at room temperature. During the settling period cAMP produced by the cells competes with the d2 labelled cAMP for the anti-cAMP cryptate. The plate is read on the Pherastar (BMG, Germany). Increasing levels of endogenous cAMP produced by cells can be followed by a decrease of FRET fluorescent signal and vice versa. Values represented by a change in arbitrary fluorescence units are converted into cAMP concentrations by use of a standard curve, the reagents for which are supplied with the kit. Antagonist dose response curves (1 nM-31.6 μM) are constructed and tested in the presence of an EC50 concentration of CRF relevant to the receptor (hCRF-1=3 nM, hCRF-2α=2 nM, rCRF-1=1 nM and rCRF-2β=0.1 nM). IC50 values of antagonists are calculated by fitting the percent inhibition of CRF induced cAMP response by increasing concentrations of the antagonists. The fit is performed using the nonlinear logistic function of the Activitybase software package v 5.4.5.27 (IDBS, UK).
On the technique in general: In TR-FRET formats the signal depends on donor and acceptor labels being close together.

A further assay has as its target T2, CRF-2 (UniProt Q13324).
T2 sequence (Q13324 1-411): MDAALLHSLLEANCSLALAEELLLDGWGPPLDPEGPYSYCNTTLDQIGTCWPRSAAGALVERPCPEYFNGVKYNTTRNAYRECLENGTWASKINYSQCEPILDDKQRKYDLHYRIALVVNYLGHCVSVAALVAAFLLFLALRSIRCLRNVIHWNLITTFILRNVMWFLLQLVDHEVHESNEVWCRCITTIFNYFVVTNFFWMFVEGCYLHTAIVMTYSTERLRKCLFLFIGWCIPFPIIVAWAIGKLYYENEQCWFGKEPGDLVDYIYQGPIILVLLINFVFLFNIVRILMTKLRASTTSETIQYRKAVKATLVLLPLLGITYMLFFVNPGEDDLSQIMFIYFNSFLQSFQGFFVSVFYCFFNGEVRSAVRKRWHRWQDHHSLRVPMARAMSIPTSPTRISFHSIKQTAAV
Nature of the assay: CRF-2 receptor antagonism, HTRF cAMP assay in CHO cells. The conditions noted are these: Biological data Table 2; inhibition of CRF induced cAMP response in CHO cells, EC50 concentration of CRF. The assay is classed as cell-based, human. How it is done:
as §1, §2

As a reminder, the IC50 is the midpoint of a concentration-inhibition curve. A high value points to weaker potency.

For the molecule `Cc1ncc(Cl)cc1C(=O)N[C@H]1CC[C@H](CN2C(=O)C(C)(F)c3ccc(Cl)cc32)CC1` (single isomer, unassigned) [Example 2.33, Trans-5-Chloro-N-[4-(-6-chloro-3-fluoro-3-methyl-2-oxo-2,3-dihydro-indol-1-ylmethyl)-cyclohexyl]-2-methyl-nicotinamide], the values for the half-maximal inhibitory concentration (IC50) against CRF-1 and on CRF-2 were 44 nM and 876 nM, respectively.
In the same order, the values of `Cc1cc2c(cc1C)C(C)(F)C(=O)N2C[C@H]1CC[C@H](NC(=O)c2cc(Cl)cnc2C)CC1` (single isomer, unassigned; enantiomer 1) [Example 2.54, Enantiomer 1 of Trans-5-Chloro-N-[4-(3-fluoro-3,5,6-trimethyl-2-oxo-2,3-dihydro-indol-1-ylmethyl)-cyclohexyl]-2-methyl-nicotinamide] are 59 nM and 4760 nM.
Taken in the same sequence, the figures for `Cc1cc2c(cc1C)C(C)(F)C(=O)N2C[C@H]1CC[C@H](NC(=O)c2cc(Cl)cnc2C)CC1` (single isomer, unassigned; enantiomer 2) [Example 2.55, Enantiomer 2 of Trans-5-Chloro-N-[4-(3-fluoro-3,5,6-trimethyl-2-oxo-2,3-dihydro-indol-1-ylmethyl)-cyclohexyl]-2-methyl-nicotinamide] were 60 nM and 4530 nM.
In the same order, the values of `Cc1ncc(Cl)cc1C(=O)N[C@H]1CC[C@H](CN2C(=O)C(C)(C)c3ccccc32)CC1` [Example 1.3, Trans-5-chloro-N-[4-(3,3-dimethyl-2-oxo-2,3-dihydro-indol-1-ylmethyl)-cyclohexyl]-2-methyl-icotinamide] are 48 nM and 3800 nM.
Take `Cc1ncc(Cl)cc1C(=O)N[C@H]1CC[C@H](CN2C(=O)C3(CC3)c3cc(F)ccc32)CC1` [Example 2.6, Trans-5-chloro-N-[-4-((5′-fluoro-2′-oxospiro[cyclopropane-1,3′-indoline]-1′-yl)methyl)cyclohexyl]-2-methyl nicotinamide]: the IC50 against CRF-1 came to 12 nM; against CRF-2, 811 nM.
In the same order, the values of `Cc1ncc(Cl)cc1C(=O)N[C@H]1CC[C@H](CN2C(=O)C(C)(C)c3cccc(Cl)c32)CC1` [Example 2.15, Trans-5-Chloro-N-[4-(7-chloro-3,3-dimethyl-2-oxo-2,3-dihydro-indol-1-ylmethyl)-cyclohexyl]-2-methyl-nicotinamide] are 17 nM and 936 nM.
In the same order, the values of `COc1cccc2c1N(C[C@H]1CC[C@H](NC(=O)c3cc(C(F)(F)F)ccc3Cl)CC1)C(=O)C2(C)C` [Example 2.18, Trans-2-Chloro-N-[4-(7-methoxy-3,3-dimethyl-2-oxo-2,3-dihydro-indol-1-ylmethyl)-cyclohexyl]-5-trifluoromethyl-benzamide] are 50 nM and 1680 nM.
With `Cc1ncc(Cl)cc1C(=O)N[C@H]1CC[C@H](CN2C(=O)[C@@](C)(F)c3ccccc32)CC1` [Example 2.20, Trans-5-Chloro-N-[4-((S)-3-fluoro-3-methyl-2-oxo-2,3-dihydro-indol-1-ylmethyl)-cyclohexyl]-2-methyl-nicotinamide], the IC50 amounted to 62 nM against CRF-1 and 4590 nM against CRF-2.
With `Cc1cccc2c1N(C[C@H]1CC[C@H](NC(=O)c3cc(C(F)(F)F)ccc3Cl)CC1)C(=O)C2(C)C` [Example 2.23, Trans-2-Chloro-5-trifluoromethyl-N-[4-(3,3,7-trimethyl-2-oxo-2,3-dihydro-indol-1-ylmethyl)-cyclohexyl]-benzamide], the IC50 was 57 nM on CRF-1 and 2140 nM against CRF-2.
In the same order, the values of `Cc1ncc(Cl)cc1C(=O)N[C@H]1CC[C@H](CN2C(=O)C(F)(F)c3ccc(Cl)cc32)CC1` [Example 2.26, Trans-5-Chloro-N-[4-(6-chloro-3,3-difluoro-2-oxo-2,3-dihydro-indol-1-ylmethyl)-cyclohexyl]-2-methyl-nicotinamide] are 157 nM and 3120 nM.
In the same order, the values of `Cc1cccc2c1C(C)(C)C(=O)N2C[C@H]1CC[C@H](NC(=O)c2cc(Cl)cnc2C)CC1` [Example 2.27, Trans-5-Chloro-2-methyl-N-[4-(3,3,4-trimethyl-2-oxo-2,3-dihydro-indol-1-ylmethyl)-cyclohexyl]-nicotinamide] are 157 nM and 4810 nM.
Taken in the same sequence, the figures for `COc1ccc2c(c1)N(C[C@H]1CC[C@H](NC(=O)c3cc(Cl)cnc3C)CC1)C(=O)C2(C)C` [Example 2.28, Trans-5-Chloro-N-[4-(6-methoxy-3,3-dimethyl-2-oxo-2,3-dihydro-indol-1-ylmethyl)-cyclohexyl]-2-methyl-nicotinamide] were 38 nM and 3050 nM.
As to `Cc1ncc(Cl)cc1C(=O)N[C@H]1CC[C@H](CN2C(=O)C(C)(C)c3ccc(Cl)cc32)CC1` [Example 2.29, Trans-5-Chloro-N-[4-(6-chloro-3,3-dimethyl-2-oxo-2,3-dihydro-indol-1-ylmethyl)-cyclohexyl]-2-methyl-nicotinamide], the IC50 at CRF-1 turned out to be 14 nM; at CRF-2 it was 4620 nM.
Taken in the same sequence, the figures for `CCn1c(=O)n(C[C@H]2CC[C@H](NC(=O)c3cc(Cl)cnc3C)CC2)c2ccccc21` [Example 2.46, Trans-5-Chloro-N-[4-(3-ethyl-2-oxo-2,3-dihydro-benzoimidazol-1-ylmethyl)-cyclohexyl]-2-methyl-nicotinamide] were 44 nM and 256 nM.
With `Cc1ncc(Cl)cc1C(=O)N[C@H]1CC[C@H](Cn2c(=O)n(CC(C)C)c3ccccc32)CC1` [Example 2.47, Trans-5-Chloro-N-[4-(3-isobutyl-2-oxo-2,3-dihydro-benzoimidazol-1-ylmethyl)-cyclohexyl]-2-methyl-nicotinamide], the 50% inhibitory concentration (IC50) at CRF-1 amounted to 18 nM; against CRF-2 it was 296 nM.
On to `Cc1ncc(Cl)cc1C(=O)N[C@H]1CC[C@H](Cn2c(=O)n(C)c3ccccc32)CC1` [Example 2.50, Trans-5-Chloro-2-methyl-N-[4-(3-methyl-2-oxo-2,3-dihydro-benzoimidazol-1-ylmethyl)-cyclohexyl]-nicotinamide], for which the IC50 against CRF-1 is 86 nM; against CRF-2 it was 3560 nM.
Taken in the same sequence, the figures for `O=C(N[C@H]1CC[C@H](CN2C(=O)Cc3ccc(F)cc32)CC1)c1cc(C(F)(F)F)ccc1Cl` [Example 3.2, Trans-2-Chloro-N-[4-(6-fluoro-2-oxo-2,3-dihydro-indol-1-ylmethyl)-cyclohexyl]-5-trifluoromethyl-bcnzamide] were 47 nM and 3870 nM.
For `CCn1c(=O)n(C[C@H]2CC[C@H](NC(=O)c3cc(C(F)(F)F)ccc3Cl)CC2)c2ccccc21` [Example 3.4, Trans-2-Chloro-N-[4-(3-ethyl-2-oxo-2,3-dihydro-bcnzoimidazol-1-ylmethyl)-cyclohexyl]-5-trifluoromethyl-benzamide], the IC50 is 18 nM against CRF-1 and 1950 nM at CRF-2.
